Active and inactive are the calls of the source. The calls are words filed in the database; no cut-off is given here.
Key:
[1] = Toxicity in female KM mouse assessed as effect on liver at 20 mg/kg, sc measured after 24 hrs by H and E staining based analysis; type: organism-based; conditions: in vivo
Cell membrane [2] = assay: Induction of cytoplasmic membrane depolarization in methicillin-resistant Staphylococcus aureus clinical isolate 16 assessed as increase in fluorescence intensity at 8 to 32 time MIC measured for 10 mins by DiSC3-5 dye based fluorescence method
Staphylococcus aureus [3] = assay: Antibacterial activity against methicillin-resistant Staphylococcus aureus clinical isolate 16 infected in female KM mouse skin abscess model assessed as healthy skin on back at 10 mg/kg, sc measured after 24 hrs; type: functional, organism-based
[4] = Toxicity in female KM mouse skin abscess model infected with methicillin-resistant Staphylococcus aureus clinical isolate 16 assessed as effect on kidney at 5 to 10 mg/kg, sc measured after 24 hrs by H and E staining based analysis; type: organism-based; conditions: in vivo, dose 5-10 mg/kg
Cell membrane [5] = assay: Induction of cell membrane disruption in methicillin-resistant Staphylococcus aureus clinical isolate 16 assessed as dead cells (Q1 region) at 4 ug/ml measured after 2 hrs by SYTO-9 and PI staining based flow cytometry analysis (reference value: 0%); type: cell membranes; conditions: dose 4.0 µg/ml
Staphylococcus aureus [6] = assay: Antibacterial activity against methicillin-resistant Staphylococcus aureus clinical isolate 16 measured after 18 hrs in presence of phosphatidylglycerol by checkerboard broth dilution method; type: functional
Staphylococcus aureus [7] = assay: Antibacterial activity against Staphylococcus aureus ATCC 29213 measured after 18 hrs by CLSI based broth microdilution method; type: functional
[8] = Toxicity in female KM mouse skin abscess model infected with methicillin-resistant Staphylococcus aureus clinical isolate 16 assessed as effect on liver at 5 to 10 mg/kg, sc measured after 24 hrs by H and E staining based analysis; type: organism-based; conditions: in vivo, dose 5-10 mg/kg
[9] = Toxicity in female KM mouse assessed as effect on hematocrit in blood at upto 20 mg/kg, sc measured after 24 hrs; type: organism-based; conditions: in vivo
Staphylococcus aureus [10] = assay: Antibacterial activity against methicillin-resistant Staphylococcus aureus clinical isolate 16 infected in female KM mouse skin abscess model assessed as smooth skin on back at 10 mg/kg, sc measured after 24 hrs; type: functional, organism-based
Staphylococcus aureus [11] = assay: Antibacterial activity against methicillin-resistant Staphylococcus aureus clinical isolate 12 measured after 18 hrs by CLSI based broth microdilution method; type: functional
[12] = Toxicity in female KM mouse assessed as swelling in skin at 40 to 80 mg/kg, sc measured after 24 hrs; type: organism-based; conditions: in vivo, dose 40-80 mg/kg
Staphylococcus aureus [13] = assay: Antibacterial activity against methicillin-resistant Staphylococcus aureus clinical isolate 16 infected in female KM mouse skin abscess model assessed as reduction in inflammatory cells at 5 to 10 mg/kg, sc measured after 24 hrs by H and E staining based analysis; type: functional, organism-based; conditions: dose 5-10 mg/kg
L02 = assay: Cytotoxicity in human L02 cells measured after 24 hrs by CCK-8 method; type: toxicity, cell-based; conditions: l02, 24 h
[14] = Toxicity in female KM mouse skin abscess model infected with methicillin-resistant Staphylococcus aureus clinical isolate 16 assessed as histological abnormalities in heart at 5 to 10 mg/kg, sc measured after 24 hrs by H and E staining based analysis; type: organism-based; conditions: in vivo, dose 5-10 mg/kg
Cell membrane [15] = assay: Induction of cell membrane disruption in methicillin-resistant Staphylococcus aureus clinical isolate 16 assessed as intact cells (Q3 region) at 8 ug/ml measured after 2 hrs by SYTO-9 and PI staining based flow cytometry analysis (reference value: 96.0%); type: cell membranes; conditions: dose 8.0 µg/ml
Staphylococcus aureus [16] = assay: Antibacterial activity against methicillin-resistant Staphylococcus aureus clinical isolate 16 measured after 18 hrs by CLSI based broth microdilution method; type: functional
Staphylococcus aureus [17] = assay: Antibacterial activity against methicillin-resistant Staphylococcus aureus clinical isolate 16 infected in female KM mouse skin abscess model assessed as log reduction in bacterial load at 10 mg/kg, sc measured after 24 hrs (reference value: 8.508 log10CFU/g); type: functional
Staphylococcus aureus [18] = assay: Antibacterial activity against methicillin-resistant Staphylococcus aureus clinical isolate 16 infected in female KM mouse skin abscess model assessed as reduction in bacterial load at 5 mg/kg, sc measured after 24 hrs relative to control; type: functional; design: scale not given: the % may be the effect or the level left
Escherichia coli = assay: Antibacterial activity against Escherichia coli ATCC 25922 measured after 18 hrs by CLSI based broth microdilution method; type: functional
[19] = Toxicity in female KM mouse assessed as effect on heart at 20 mg/kg, sc measured after 24 hrs by H and E staining based analysis; type: organism-based; conditions: in vivo
Cell membrane [20] = assay: Disruption of cell membrane in methicillin-resistant Staphylococcus aureus clinical isolate 16 assessed as fold increase in intracellular ROS level at 64 ug/ml incubated for 50 mins by DCFH-DA staining based fluorescence assay; type: cell membranes; conditions: dose 64.0 µg/ml
Cell membrane [21] = assay: Induction of cell membrane disruption in methicillin-resistant Staphylococcus aureus clinical isolate 16 assessed as intact cells (Q3 region) at 16 ug/ml measured after 2 hrs by SYTO-9 and PI staining based flow cytometry analysis (reference value: 96.0%); type: cell membranes; conditions: dose 16.0 µg/ml
[22] = Toxicity in female KM mouse skin abscess model infected with methicillin-resistant Staphylococcus aureus clinical isolate 16 assessed as effect on lung at 5 to 10 mg/kg, sc measured after 24 hrs by H and E staining based analysis; type: organism-based; conditions: in vivo, dose 5-10 mg/kg
Cell membrane [23] = assay: Induction of cell membrane disruption in methicillin-resistant Staphylococcus aureus clinical isolate 16 assessed as dead cells (Q1 region) at 16 ug/ml measured after 2 hrs by SYTO-9 and PI staining based flow cytometry analysis (reference value: 0%); type: cell membranes; conditions: dose 16.0 µg/ml
Staphylococcus aureus [24] = assay: Antibacterial activity against methicillin-resistant Staphylococcus aureus clinical isolate 16 infected in female KM mouse skin abscess model assessed as reduction in IL-6 level at 5 to 10 mg/kg, sc measured after 24 hrs by ELISA method; type: functional, organism-based; conditions: dose 5-10 mg/kg

## CCCCCCNC(=O)C[N+](C)(C)CCCCCOc1ccc2ccc(=O)oc2c1CC=C(C)C.[Br-]
[1]
  Activity: Non-Toxic
Cell membrane [2]
  Activity: Active
Staphylococcus aureus [3]
  Activity: Active
[4]
  Activity: Non-Toxic
Cell membrane [5]
  Activity: 0.12%
Staphylococcus aureus [6]
  MIC: 64 µg/mL
Staphylococcus aureus [7]
  MIC: 1 µg/mL
[8]
  Activity: Non-Toxic
[9]
  Activity: Non-Toxic
Staphylococcus aureus [10]
  Activity: Active
Staphylococcus aureus [11]
  MIC: 2 µg/mL
[12]
  Activity: Toxic
Staphylococcus aureus [13]
  Activity: Active
L02
  Activity: Non-Toxic
[14]
  Activity: Non-Toxic
Cell membrane [15]
  Activity: 45.3%
Staphylococcus aureus [16]
  MIC: 1 µg/mL
Staphylococcus aureus [17]
  Activity: 4.458 log10CFU/g
Staphylococcus aureus [18]
  Activity: 99.86%
Escherichia coli
  MIC: 32 µg/mL
[19]
  Activity: Non-Toxic
Cell membrane [20]
  fold change (FC): 7
Cell membrane [21]
  Activity: 1.1%
[22]
  Activity: Non-Toxic
Cell membrane [23]
  Activity: 0.68%
Staphylococcus aureus [24]
  Activity: Active
